Source: patent publication US20230093099A1, “COMPOUNDS AND METHODS OF TREATING CANCERS” (CULLGEN (SHANGHAI), INC., priority 2019, published 2023)

Assays:
[1] = system: p-STAT5; test: Immunoblot of p-STAT5 (downstream signaling) in HEL cells; type: cell-based; settings: immunoblot (FIG. 1)
Experimental: (§1) To confirm JA-189 and JA-213 are true JAK degraders, HEL cell were treated with these two compounds at various compounds concentrations.
(§2) HEL, RS4;11, MV4;11, Kasumi-1 and other cells were cultured at 37° C. with 5% CO2 in RPMI 1640 or DMEM Medium supplemented with 10% fetal bovine serum. Cells were authenticated using the short tandem repeat (STR) assays. Mycoplasma test results were negative.
(§3) Rabbit anti-JAK1 antibody (3344S), anti-JAK2 antibody (3230S), anti-JAK3 antibody (8827S), anti-TYK2 antibody (14193S), anti-FLT3 antibody (3462S), anti-RET antibody (14556S), anti-phospho-STAT3 (Tyr705) antibody (9145S) and anti-phospho-STAT5 (Tyr694) antibody (4322S) were purchased from Cell Signaling Technology. Rabbit anti-GSPT1 antibody (ab126090) was purchased from Abcam. HRP-conjugated anti-α-tubulin antibody was produced in house. Media and other cell culture reagents were purchased from Thermo Fisher. The CellTiter-Glo Luminescent Assay kit was purchased from Promega.
(§4) Cultured cells were washed with cold PBS once and lysed in cold RIPA buffer supplemented with protease inhibitors and phosphatase inhibitors (Beyotime Biotechnology). […] Total protein concentrations in the lysates were determined by BCA assays (Beyotime Biotechnology). […] Protein bands were quantitated using the accompanied software provided by Bio-Rad.

[2] = system: KM12 cells; test: Cell viability assay (CellTiter-Glo) in KM12 cells; type: cell-based; settings: Homo sapiens, 72 h, KM12, colorectal carcinoma, 3 days
Experimental: (§5) MV4;11, RS4;11, Kasumi-1, HEL and other cells were treated with NVP-BSK805, TG101209 or selected degraders for 3 days at indicated concentrations following a 3-fold serial dilution.
as §2
(§6) Cells were seeded at a density of 5000 cells per well in 96-well assay plates and treated with test compounds following a 8-point or 12-point 3-fold serial dilution. Three days later, cell viability was determined using the CellTiter-Glo assay kit according to the manufacturer's instructions. The dose-response curves were determined and IC50 values were calculated using the GraphPad Prism software following a nonlinear regression (least squares fit) method.

[3] = system: Jurkat cells; test: Cell viability assay (CellTiter-Glo) in Jurkat cells; type: cell-based; settings: Homo sapiens, 72 h, T-ALL, 3 days
Experimental: as §5, §2, §6

[4] = system: SU-DHL-1 cells; test: Cell viability assay (CellTiter-Glo) in SU-DHL-1 cells; type: cell-based; settings: Homo sapiens, 72 h, SU-DHL-1, large cell lymphoma, 3 days
Experimental: as §5, §2, §6

[5] = system: NOMO-1 cells; test: Cell viability assay (CellTiter-Glo) in NOMO-1 cells; type: cell-based; settings: Homo sapiens, 72 h, NOMO-1, AML, 3 days
Experimental: as §5, §2, §6

[6] = target: T1, JAK1 (Homo sapiens, UniProt P23458); test: Immunoblot of JAK1 protein level in RS4;11 cells; type: cell-based; settings: 24 hours; for JAK1 protein level: immunoblot (FIG. 2)
T1 construct: immunoblot of JAK1/3 proteins expressed in RS4;11 cells; endogenous in cells; host or cells: RS4;11 cells
Experimental: RS4;11 cells were treated with compounds at indicated concentrations for 24 hours. […] The concentrations required to reduce JAK1 by 50% (DC50) were below 5 nM and 35 nM for compound JA-189 and JA213, respectively.
as §2, §3
Cultured cells were washed with cold PBS once and lysed in cold RIPA buffer supplemented with protease inhibitors and phosphatase inhibitors (Beyotime Biotechnology). The solutions were then incubated at 4° C. for 30 minutes with gentle agitation to fully lyse cells. Cell lysates were centrifuged at 13,000 rpm for 10 minutes at 4° C. and pellets were discarded. Total protein concentrations in the lysates were determined by BCA assays (Beyotime Biotechnology). Cell lysates were mixed with Laemmli loading buffer to 1× and heated at 99° C. for 5 min. Proteins were resolved on SDS-PAGE and visualized by chemiluminescence. Images were taken by a ChemiDoc MP Imaging system (Bio-Rad). Protein bands were quantitated using the accompanied software provided by Bio-Rad.

[7] = system: keratinocyte HACAT cells; test: Cell viability of non-cancerous keratinocyte HACAT cells; type: cell-based, human; settings: 3 days, 3-fold serial dilution (FIG. 6)
Experimental: (§7) Immortalized human lung fibroblast IMR-90 and keratinocyte HACAT cells were treated with JA-189 or JA-213 for 3 days at indicated concentrations following a 3-fold serial dilution.
as §6

[8] = target: T2, JAK3 (Homo sapiens, UniProt P52333); test: Immunoblot of JAK3 protein level in RS4;11 cells; type: cell-based; settings: immunoblot (FIG. 2)
T2 construct: immunoblot of JAK1/2/3 proteins expressed in HEL cells; endogenous in cells; host or cells: HEL cells
T2 sequence (P52333 1-1124): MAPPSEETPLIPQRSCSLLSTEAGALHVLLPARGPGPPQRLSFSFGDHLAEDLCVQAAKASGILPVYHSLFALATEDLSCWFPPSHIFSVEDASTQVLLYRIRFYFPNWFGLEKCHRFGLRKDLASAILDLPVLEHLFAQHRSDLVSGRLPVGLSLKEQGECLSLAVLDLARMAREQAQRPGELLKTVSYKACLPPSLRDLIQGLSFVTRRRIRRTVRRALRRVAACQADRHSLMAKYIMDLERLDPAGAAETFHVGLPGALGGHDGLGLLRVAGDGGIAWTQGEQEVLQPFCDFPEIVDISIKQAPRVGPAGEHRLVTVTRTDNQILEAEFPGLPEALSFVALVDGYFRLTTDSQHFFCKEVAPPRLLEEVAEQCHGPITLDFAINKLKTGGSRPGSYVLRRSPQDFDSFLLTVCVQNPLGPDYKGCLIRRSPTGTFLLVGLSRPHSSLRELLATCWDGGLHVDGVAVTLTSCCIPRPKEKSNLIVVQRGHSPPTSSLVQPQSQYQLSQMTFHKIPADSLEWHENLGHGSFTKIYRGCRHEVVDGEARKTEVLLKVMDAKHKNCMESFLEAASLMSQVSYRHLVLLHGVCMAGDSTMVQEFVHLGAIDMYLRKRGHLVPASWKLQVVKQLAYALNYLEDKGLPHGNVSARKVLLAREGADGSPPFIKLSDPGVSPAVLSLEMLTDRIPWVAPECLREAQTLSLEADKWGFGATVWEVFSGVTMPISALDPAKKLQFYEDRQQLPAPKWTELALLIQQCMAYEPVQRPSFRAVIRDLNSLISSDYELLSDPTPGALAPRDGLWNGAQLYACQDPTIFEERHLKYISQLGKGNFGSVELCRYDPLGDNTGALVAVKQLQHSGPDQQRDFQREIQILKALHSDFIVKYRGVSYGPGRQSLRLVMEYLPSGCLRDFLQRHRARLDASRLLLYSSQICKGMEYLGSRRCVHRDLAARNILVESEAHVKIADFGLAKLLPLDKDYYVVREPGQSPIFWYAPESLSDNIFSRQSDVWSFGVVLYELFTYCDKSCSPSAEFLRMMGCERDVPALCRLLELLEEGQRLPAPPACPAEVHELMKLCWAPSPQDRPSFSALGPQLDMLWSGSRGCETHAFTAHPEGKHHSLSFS
Experimental: as §1, §2, §3, §4

[9] = system: CCRF-CEM cells; test: Cell viability assay (CellTiter-Glo) in CCRF-CEM cells; type: cell-based; settings: Homo sapiens, 72 h, T-ALL, 3 days
Experimental: as §5, §2, §6

[10] = system: immortalized human lung fibroblast IMR-90 cells; test: Cell viability of non-cancerous lung fibroblast IMR-90 cells; type: cell-based; settings: IMR-90, 3 days, 3-fold serial dilution (FIG. 6)
Experimental: as §7, §6

T1 sequence (P23458 whole entry): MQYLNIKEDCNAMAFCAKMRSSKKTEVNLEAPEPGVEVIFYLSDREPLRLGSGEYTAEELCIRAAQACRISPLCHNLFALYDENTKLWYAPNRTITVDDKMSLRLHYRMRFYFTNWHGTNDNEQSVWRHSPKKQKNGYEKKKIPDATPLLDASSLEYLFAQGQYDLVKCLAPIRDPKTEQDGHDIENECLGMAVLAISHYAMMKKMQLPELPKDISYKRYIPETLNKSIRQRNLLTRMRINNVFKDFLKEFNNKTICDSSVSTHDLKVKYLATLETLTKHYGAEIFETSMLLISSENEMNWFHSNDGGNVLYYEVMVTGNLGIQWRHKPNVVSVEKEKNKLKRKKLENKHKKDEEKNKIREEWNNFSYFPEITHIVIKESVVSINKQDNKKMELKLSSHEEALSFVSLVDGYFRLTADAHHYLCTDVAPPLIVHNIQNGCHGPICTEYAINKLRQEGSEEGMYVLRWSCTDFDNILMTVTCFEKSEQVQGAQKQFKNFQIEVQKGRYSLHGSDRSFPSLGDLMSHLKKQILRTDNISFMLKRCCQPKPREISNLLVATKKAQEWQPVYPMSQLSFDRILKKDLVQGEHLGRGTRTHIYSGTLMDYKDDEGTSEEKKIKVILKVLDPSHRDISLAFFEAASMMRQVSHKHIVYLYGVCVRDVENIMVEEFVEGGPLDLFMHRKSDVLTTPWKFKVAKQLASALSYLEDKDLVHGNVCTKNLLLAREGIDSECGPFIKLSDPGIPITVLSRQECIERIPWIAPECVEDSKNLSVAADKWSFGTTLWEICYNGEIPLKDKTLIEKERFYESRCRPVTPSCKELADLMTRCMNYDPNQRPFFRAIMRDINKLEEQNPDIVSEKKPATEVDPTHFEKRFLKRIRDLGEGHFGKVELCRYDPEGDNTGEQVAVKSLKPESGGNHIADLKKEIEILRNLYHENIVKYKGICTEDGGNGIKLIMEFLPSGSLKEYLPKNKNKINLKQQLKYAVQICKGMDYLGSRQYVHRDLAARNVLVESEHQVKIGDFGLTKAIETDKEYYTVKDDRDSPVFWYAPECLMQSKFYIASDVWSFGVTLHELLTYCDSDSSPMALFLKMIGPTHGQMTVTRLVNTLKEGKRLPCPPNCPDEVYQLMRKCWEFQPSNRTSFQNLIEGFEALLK

Q: Which results are given for `O=C1CCC(N2C(=O)c3ccc(NCCCCCC(=O)N4CCC(n5cc(-c6cnc7cccc(-c8cc(F)c(CN9CCOCC9)c(F)c8)c7n6)cn5)CC4)cc3C2=O)C(=O)N1` (stereo not drawn) [JA-189, 5-((6-(4-(4-(8-(3,5-difluoro-4-(morpholinomethyl)phenyl)quinoxalin-2-yl)-1H-pyrazol-1-yl)piperidin-1-yl)-6-oxohexyl)amino)-2-(2,6-dioxopiperidin-3-yl)isoindoline-1,3-dione]?
A: down stream signaling, p-STAT5 band [1]: weaker bands of p-STAT3 and p-STAT5; IC50 [2]: 2370 nM; IC50 [3]: 34.2 nM; IC50 [4]: 222 nM; IC50 [5]: 53.2 nM; JAK1 protein level [6]: even better activity in reducing the JAK1 and JAK3 protein levels; DC50 ([6]; immunoblot, read-out: concentration required to reduce JAK1 by 50% (DC50)): < 5 nM; sensitivity of non-cancerous cells (cell viability) [7]: not sensitive; JAK3 protein level [8]: even better activity in reducing the JAK1 and JAK3 protein levels; IC50 [9]: 3.84 nM; sensitivity of non-cancerous cells (cell viability) [10]: not sensitive

Q: Which results are given for `CS(=O)(=O)c1ccc(-c2cccc3nc(Nc4ccc(N5CCN(CC(=O)NCCCCCCCCNc6ccc7c(c6)C(=O)N(C6CCC(=O)NC6=O)C7=O)CC5)cc4)nn23)cc1` (stereo not drawn) [JA-213]?
A: down stream signaling, p-STAT5 band [1]: weaker bands of p-STAT3 and p-STAT5; IC50 [2]: 679 nM; IC50 [3]: 62.7 nM; IC50 [4]: 319 nM; IC50 [5]: 81.7 nM; JAK1 protein level [6]: even better activity in reducing the JAK1 and JAK3 protein levels; sensitivity of non-cancerous cells (cell viability) [7]: not sensitive; JAK3 protein level [8]: even better activity in reducing the JAK1 and JAK3 protein levels; IC50 [9]: 19.1 nM; sensitivity of non-cancerous cells (cell viability) [10]: not sensitive
